Test results from publication PMC9966726, “Methylene Blue Inhibits Cromakalim-Activated K^+ Currents in Follicle-Enclosed Oocytes” (Membranes, 2023).
One block for each compound: values may come before it.

Key:
[1] = test system: T1, KATP channels of follicular cells (follicle-enclosed Xenopus oocytes); test: two-electrode voltage clamp, cromakalim-activated K+ current, follicle-enclosed oocytes; type: cell-based, Xenopus laevis; conditions: channel opener; control without MB; -20 mV; pH 7.5; slope 0.91
T1 construct: gene kcnj11; native channel, endogenous to follicular cells; pore tetramer with one SUR per pore subunit; isoforms not determined

[2] = test system: T1, KATP channels of follicular cells (follicle-enclosed Xenopus oocytes); test: as above; type: cell-based, Xenopus laevis; conditions: 100 μM cromakalim; 20 min MB preincubation; -20 mV; pH 7.5; noncompetitive, voltage-independent; slope 1.1
[3] = test system: T1, KATP channels of follicular cells (follicle-enclosed Xenopus oocytes); test: [3H]glibenclamide saturation binding, microsomal membranes, filtration; parameters: species or system Xenopus laevis; conditions: labelled compound; control without MB; 50 mM HEPES, pH 7.5, 22 °C, 60 min; sulfonylurea receptor site

EC50 [1]: 194 ± 21 µM
Compound: CC1(C)Oc2ccc(C#N)cc2C(N2CCCC2=O)C1O (stereo not drawn) [CKL, cromakalim]

Compound: CN(C)c1ccc2nc3ccc(N(C)C)cc3[s+]c2c1 [MB, Methylene blue]
IC50 [2]: 22.4 µM

Compound: COc1ccc(Cl)cc1C(=O)NCCc1ccc(S(=O)(=O)NC(=O)NC2CCCCC2)cc1 [[^3H]glibenclamide]
Kd [3]: 0.00121 ± 0.00014 µM
